For 21 molecules, IC50 results are on record in patent US9957264B2 (Merck Sharp & Dohme Corp., priority 2013, dated 2018).

Assay [1] deals with JAK2 (recombinant purified GST-tagged catalytic domain) (Homo sapiens (Human), UniProt O60674). The assay can be described thus: Jak Biochemical HTRF Assay (JAK2). To be noted: [ATP] 8.5 μM. Background: In TR-FRET formats the signal depends on donor and acceptor labels being close together.
Assay [2] addresses JAK1 (recombinant purified GST-tagged catalytic domain) (Homo sapiens (Human), UniProt P23458). The assay can be described thus: Jak Biochemical HTRF Assay (JAK1). To be noted: [ATP] 31.8 μM. The essentials:
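Read-out is the 665/615 nm time-resolved FRET ratio from Eu-pY20 antibody and streptavidin-Dylight 650 bound to phosphorylated biotin-peptide. Reactions ran 120 min at room temperature after ATP start. Inhibition normalized to untreated controls gave IC50 via 4-parameter fit.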

The term IC50 denotes the point on the concentration scale where inhibition reaches its midpoint.

SMILES strings stand for the structures.

Chain of JAK2 (recombinant purified GST-tagged catalytic domain) (O60674 849-1124): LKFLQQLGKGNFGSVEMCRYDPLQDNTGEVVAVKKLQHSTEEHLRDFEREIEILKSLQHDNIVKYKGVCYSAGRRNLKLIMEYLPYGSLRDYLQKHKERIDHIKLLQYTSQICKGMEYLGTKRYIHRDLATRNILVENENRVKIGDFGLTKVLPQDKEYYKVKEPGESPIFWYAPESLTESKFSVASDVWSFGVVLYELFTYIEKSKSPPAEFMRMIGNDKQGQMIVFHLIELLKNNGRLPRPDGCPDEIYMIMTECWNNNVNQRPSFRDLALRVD
Chain of JAK1 (recombinant purified GST-tagged catalytic domain) (P23458 875-1153): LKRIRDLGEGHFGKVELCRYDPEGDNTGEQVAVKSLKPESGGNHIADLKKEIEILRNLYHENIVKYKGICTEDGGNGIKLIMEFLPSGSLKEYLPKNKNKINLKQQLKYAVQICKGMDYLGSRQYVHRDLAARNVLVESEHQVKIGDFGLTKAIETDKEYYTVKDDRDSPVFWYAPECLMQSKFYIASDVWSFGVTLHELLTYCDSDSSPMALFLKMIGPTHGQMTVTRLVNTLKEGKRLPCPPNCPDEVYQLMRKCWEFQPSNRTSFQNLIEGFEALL

Take `CC(C)(C)OC(=O)N1CCC(CC#N)(n2nc(Nc3ccc(S(N)(=O)=O)cc3)c3c(=O)[nH]ccc32)CC1` [Example 5-4, tert-butyl 4-(cyanomethyl)-4-{4-oxo-3-[(4-sulfamoylphenyl)amino]-4,5-dihydro-1H-pyrazolo[4,3-c]pyridin-1-yl}piperidine-1-carboxylate]: the results for the IC50 in assay [1] and in assay [2] were 0.23 nM and 0.12 nM, respectively.
In the same order, the values of `COC1CN([C@H]2CC[C@@](CC#N)(n3nc(Nc4ccc(OC(F)(F)F)cc4)c4c(=O)[nH]ccc43)CC2)C1` [Example 18-15, Cis 2-(4-(3-methoxyazetidin-1-yl)-1-(4-oxo-3-((4-(trifluoromethoxy)phenyl)amino)-4,5-dihydro-1H-pyrazolo[4,3-c]pyridin-1-yl)cyclohexyl)acetonitrile] are 1140 nM and 151 nM.
In the same order, the values of `CN(C)C(c1ccc(Nc2nn([C@]3(CC#N)CC[C@@H](C(=O)OC(C)(C)C)OC3)c3cc[nH]c(=O)c23)cc1)C(F)(F)F` (single isomer, unassigned) [Example 5-213, (2S,5S)-tert-butyl 5-(cyanomethyl)-5-(3-((4-((R or S)-1-(dimethylamino)-2,2,2-trifluoroethyl)phenyl)amino)-4-oxo-4,5-dihydro-1H-pyrazolo[4,3-c]pyridin-1-yl)tetrahydro-2H-pyran-2-carboxylate] are 0.29 nM and 0.19 nM.
In the case of `COC1CN([C@H]2CC[C@](CC#N)(n3nc(Nc4ccc(OC(F)(F)F)cc4)c4c(=O)[nH]ccc43)CC2)C1` [Example 18-16, Trans 2-(4-(3-methoxyazetidin-1-yl)-1-(4-oxo-3-((4-(trifluoromethoxy)phenyl)amino)-4,5-dihydro-1H-pyrazolo[4,3-c]pyridin-1-yl)cyclohexyl)acetonitrile], the values for the 50% inhibitory concentration (IC50) in assay [1] and in assay [2] were 1.43 nM and 0.15 nM, respectively.
The corresponding values for `CN(C)S(=O)(=O)c1ccc(Nc2nn(C3(CC#N)CCN(C(=O)C4CC(F)(F)C4)CC3)c3cc[nH]c(=O)c23)cc1` [Example 9-7, 4-[(1-{4-(cyanomethyl)-1-[(3,3-difluorocyclobutyl)carbonyl]piperidin-4-yl}-4-oxo-4,5-dihydro-1H-pyrazolo[4,3-c]pyridin-3-yl)amino]-N,N-dimethylbenzenesulfonamide] are 0.51 nM and 0.09 nM.
Consider `N#CC[C@@]1(n2nc(Nc3ccc4c(c3)CN(C3CCN(CC(F)(F)F)CC3)S4(=O)=O)c3c(=O)[nH]ccc32)CCOC[C@@H]1F` (single isomer, unassigned) [Example 5-277, 2-((3R,4R or 3S,4S)-4-(3-((1,1-dioxido-2-(1-(2,2,2-trifluoroethyl)piperidin-4-yl)-2,3-dihydrobenzo[d]isothiazol-5-yl)amino)-4-oxo-4,5-dihydro-1H-pyrazolo[4,3-c]pyridin-1-yl)-3-fluorotetrahydro-2H-pyran-4-yl)acetonitrile], for which the IC50 in assay [1] and in assay [2] was 0.05 nM each time.
In the case of `N#CC[C@@]1(n2nc(Nc3ccc4c(c3)CN(C3CCCC3)C4=O)c3c(=O)[nH]ccc32)CCCOC1` [Example 5-197, [(3S)-3-{3-[(2-cyclopentyl-1-oxo-2,3-dihydro-1H-isoindol-5-yl)amino]-4-oxo-4,5-dihydro-1H-pyrazolo[4,3-c]pyridin-1-yl}tetrahydro-2H-pyran-3-yl]acetonitrile], the half-maximal inhibitory concentration (IC50) in assay [1] was 1.13 nM; in assay [2], 0.13 nM.
As to `N#CC[C@]1(n2nc(Nc3ccc(OC(F)(F)F)cc3)c3c(=O)[nH]ccc32)CC[C@@H](Nc2ccccc2)CC1` [Example 18-17, Cis 2-(1-(4-oxo-3-((4-(trifluoromethoxy)phenyl)amino)-4,5-dihydro-1H-pyrazolo[4,3-c]pyridin-1-yl)-4-(phenylamino)cyclohexyl)acetonitrile], the IC50 in assay [1] is 1100 nM; in assay [2], 120 nM.
Regarding `CSCCOC(=O)N1CCC(CC#N)(n2nc(Nc3ccc(S(=O)(=O)N(C)C)cc3)c3c(=O)[nH]ccc32)CC1` [Example 11-3, 2-(methylthio)ethyl 4-(cyanomethyl)-4-(3-((4-(N,N-dimethylsulfamoyl)phenyl)amino)-4-oxo-4,5-dihydro-1H-pyrazolo[4,3-c]pyridin-1-yl)piperidine-1-carboxylate], the IC50 in assay [1] turned out to be 1.09 nM; in assay [2] it was 0.31 nM.
As to `CN(C)S(=O)(=O)c1ccc(Nc2nn(C3(CC#N)CCN(C(=O)C4CCCCC4)CC3)c3cc[nH]c(=O)c23)cc1` [Example 9-8, 4-({1-[4-(cyanomethyl)-1-(cyclohexylcarbonyl)piperidin-4-yl]-4-oxo-4,5-dihydro-1H-pyrazolo[4,3-c]pyridin-3-yl}amino)-N,N-dimethylbenzenesulfonamide], the half-inhibitory concentration (IC50) in assay [1] was 1.21 nM; in assay [2] it was 0.16 nM.
With `N#CC[C@@]1(n2nc(Nc3ccc(C(N4CCCC4)C(F)(F)F)cc3)c3c(=O)[nH]ccc32)CCCOC1` (single isomer, unassigned) [Example 5-199, {(3S)-3-[4-oxo-3-({4-[(1S or 1R)-2,2,2-trifluoro-1-pyrrolidin-1-ylethyl]phenyl}amino)-4,5-dihydro-1H-pyrazolo[4,3-c]pyridin-1-yl]tetrahydro-2H-pyran-3-yl}acetonitrile], the figures for the 50% inhibitory concentration (IC50) in assay [1] and in assay [2] were 0.33 nM and 0.15 nM, respectively.
The corresponding values for `CO[C@H]1CCN(C(=O)c2ccc(Nc3nn([C@]4(CC#N)CCCOC4)c4cc[nH]c(=O)c34)cc2C)C1` [Example 5-116, 2-((S)-3-(3-((4-((S)-3-methoxypyrrolidine-1-carbonyl)-3-methylphenyl)amino)-4-oxo-4,5-dihydro-1H-pyrazolo[4,3-c]pyridin-1-yl)tetrahydro-2H-pyran-3-yl)acetonitrile] are 1.22 nM and 0.61 nM.
With `CN(C)C(=O)[C@@H]1CC[C@@](CC#N)(n2nc(Nc3ccc(Cl)cc3)c3c(=O)[nH]ccc32)CO1` [Example 23, (2S,5S)-5-(3-((4-chlorophenyl)amino)-4-oxo-4,5-dihydro-1H-pyrazolo[4,3-c]pyridin-1-yl)-5-(cyanomethyl)-N,N-dimethyltetrahydro-2H-pyran-2-carboxamide], the IC50 in assay [1] amounted to 2.5 nM; in assay [2] it was 0.23 nM.
Take `CC(C)(C)OC(=O)[C@@H]1CC[C@@](CC#N)(n2nc(Nc3ccc4nc(C#N)ccc4c3)c3c(=O)[nH]ccc32)CO1` [Example 5-216, (2S,5S)-tert-butyl 5-(cyanomethyl)-5-(3-((2-cyanoquinolin-6-yl)amino)-4-oxo-4,5-dihydro-1H-pyrazolo[4,3-c]pyridin-1-yl)tetrahydro-2H-pyran-2-carboxylate]: the results for the IC50 in assay [1] and in assay [2] were 1.16 nM and 0.14 nM, respectively.
With `N#CC[C@]1(n2nc(Nc3ccc(S(=O)(=O)C(F)F)cc3)c3c(=O)[nH]ccc32)CC[C@H](N2CC(F)C2)CC1` [Example 18-28, Trans 2-(1-(3-((4-((difluoromethyl)sulfonyl)phenyl)amino)-4-oxo-4,5-dihydro-1H-pyrazolo[4,3-c]pyridin-1-yl)-4-(3-fluoroazetidin-1-yl)cyclohexyl)acetonitrile], the IC50 in assay [1] is 0.11 nM; in assay [2], 0.05 nM.
The corresponding values for `Cc1cc(Nc2nn(C3(CC#N)CCN(C(=O)OC(C)(C)C)CC3)c3cc[nH]c(=O)c23)ccc1C(=O)N1CC2CCC(C1)O2` [Example 21-12, tert-butyl-4-(3-((4-(8-oxa-3-azabicyclo[3.2.1]octane-3-carbonyl)-3-methylphenyl)amino)-4-oxo-4,5-dihydro-1H-pyrazolo[4,3-c]pyridin-1-yl)-4-(cyanomethyl)piperidine-1-carboxylate] are 0.18 nM and 0.26 nM.
`CC(C)(C)NC(c1ccc(Nc2nn([C@]3(CC#N)CCCOC3)c3cc[nH]c(=O)c23)cc1)C(F)(F)F` (single isomer, unassigned) [Example 5-190, {(3S)-3-[3-({4-[(1S or 1R)-1-(tert-butylamino)-2,2,2-trifluoroethyl]phenyl}amino)-4-oxo-4,5-dihydro-1H-pyrazolo [4,3-c]pyridin-1-yl]tetrahydro-2H-pyran-3-yl}acetonitrile]: the half-maximal inhibitory concentration (IC50) came to 0.38 nM in assay [1] and 0.21 nM in assay [2].
Regarding `CC(C)S(=O)(=O)c1ccc(Nc2nn([C@]3(CC#N)CC[C@@H](C(=O)OC(C)(C)C)OC3)c3cc[nH]c(=O)c23)cc1` [Example 5-98, (2S,5S)-tert-butyl 5-(cyanomethyl)-5-(3-((4-(isopropylsulfonyl)phenyl)amino)-4-oxo-4,5-dihydro-1H-pyrazolo[4,3-c]pyridin-1-yl)tetrahydro-2H-pyran-2-carboxylate], the IC50 in assay [1] stood at 0.18 nM; in assay [2], 0.07 nM.
For `COC(=O)N1CCC(CC#N)(n2nc(Nc3ccc4c(c3)CN(C(C)(C)C)S4(=O)=O)c3c(=O)[nH]ccc32)CC1` [Example 5-71, methyl 4-{3-[(2-tert-butyl-1,1-dioxo-2,3-dihydro-1,2-benzothiazol-5-yl)amino]-4-oxo-1H,4H,5H-pyrazolo [4,3-c]pyridin-1-yl}-4-(cyanomethyl)piperidine-1-carboxylate], the IC50 was 0.15 nM in assay [1] and 0.08 nM in assay [2].
For `COC(=O)N1CCC(CC#N)(n2nc(Nc3ccc4c(c3)CCC4(O)C(F)(F)F)c3c(=O)[nH]ccc32)CC1` (single isomer, unassigned) [Example 5-143, (R or S)-methyl 4-(cyanomethyl)-4-(3-((1-hydroxy-1-(trifluoromethyl)-2,3-dihydro-1H-inden-5-yl)amino)-4-oxo-4,5-dihydro-1H-pyrazolo[4,3-c]pyridin-1-yl)piperidin-1-carboxylate], the IC50 in assay [1] amounted to 0.66 nM; in assay [2] it was 0.18 nM.
`CN1Cc2cc(Nc3nn([C@]4(CC#N)CC[C@@H](N5CC(F)C5)CC4)c4cc[nH]c(=O)c34)ccc2S1(=O)=O` [Example 18-32]: the IC50 was found to be 0.09 nM in assay [1] and 0.04 nM in assay [2].
